For one experiment, the species on record is Rattus norvegicus. The experiment in a line: Behavioral potency by which rat discriminate phencyclidine from saline in a 2 lever drug discrimination procedure. The experiment is classed as functional.
In a further experiment the target is Glutamate NMDA receptor. As to the kind of experiment: Displacement of [3H]TCP from tissue homogenate preparation of whole rat brain minus cerebellum. Type of experiment: tissue-based.

For five compounds, ED50 and Ki results are on record in ChEMBL document CHEMBL1124017, “Synthesis, absolute configuration, and molecular modeling study of etoxadrol, a potent phencyclidine-like agonist” (J Med Chem, 1988).

Bounds are passed on as bounds.

Regarding `CC[C@@]1(c2ccccc2)OC[C@H]([C@H]2CCCCN2)O1.CC[C@]1(c2ccccc2)OC[C@H]([C@H]2CCCCN2)O1`, the ED50 in the experiment filed under Rattus norvegicus was over 100 µM. This compound displayed a Ki at Glutamate NMDA receptor of 38 µM.
The like results for `CC[C@@]1(c2ccccc2)OC[C@@H]([C@@H]2CCCCN2)O1.CC[C@]1(c2ccccc2)OC[C@@H]([C@@H]2CCCCN2)O1` were, in that order, over 100 µM and 40 µM.
Turning to `CC[C@@]1(c2ccccc2)OC[C@H]([C@@H]2CCCCN2)O1`, the Ki at Glutamate NMDA receptor stood at 3.7 µM.
Take `CC[C@@]1(c2ccccc2)OC[C@@H]([C@H]2CCCCN2)O1`: in the experiment listed under Rattus norvegicus, the ED50 was over 100 µM. Moreover, the Ki on Glutamate NMDA receptor came out at 2.3 µM.
The like results for `CC[C@]1(c2ccccc2)OC[C@H]([C@@H]2CCCCN2)O1` [ETOXADROL] were, in that order, 2.4 µM and 0.107 µM.
